Reference: US20130330749A1, “METHOD AND APPARATUS FOR DETECTING LIVER DISEASE, AND METHOD FOR ASSAYING PHARMACEUTICAL PREPARATION” (priority 2008, published 2013)

Legend:
glutathione = conditions: mouse, large quantities of APAP, cited from earlier work
[1] = target: T1, γ-glutamyl cysteine synthase (GCS) (Mus musculus, UniProt P97494); experiment: Administration of GCS inhibitor BSO and GCS activator DEM to mice; metabolites in liver and serum measured by CE-TOFMS; format: in vivo; conditions: intraperitoneal 4 mmol/kg
T1 construct: Liver specimens (about 300 mg) were excised from the mice 1 hour after administration; from tissue; host or cells: mouse liver (in vivo, intraperitoneal dosing); serum also measured
T1 sequence (P97494 1-637): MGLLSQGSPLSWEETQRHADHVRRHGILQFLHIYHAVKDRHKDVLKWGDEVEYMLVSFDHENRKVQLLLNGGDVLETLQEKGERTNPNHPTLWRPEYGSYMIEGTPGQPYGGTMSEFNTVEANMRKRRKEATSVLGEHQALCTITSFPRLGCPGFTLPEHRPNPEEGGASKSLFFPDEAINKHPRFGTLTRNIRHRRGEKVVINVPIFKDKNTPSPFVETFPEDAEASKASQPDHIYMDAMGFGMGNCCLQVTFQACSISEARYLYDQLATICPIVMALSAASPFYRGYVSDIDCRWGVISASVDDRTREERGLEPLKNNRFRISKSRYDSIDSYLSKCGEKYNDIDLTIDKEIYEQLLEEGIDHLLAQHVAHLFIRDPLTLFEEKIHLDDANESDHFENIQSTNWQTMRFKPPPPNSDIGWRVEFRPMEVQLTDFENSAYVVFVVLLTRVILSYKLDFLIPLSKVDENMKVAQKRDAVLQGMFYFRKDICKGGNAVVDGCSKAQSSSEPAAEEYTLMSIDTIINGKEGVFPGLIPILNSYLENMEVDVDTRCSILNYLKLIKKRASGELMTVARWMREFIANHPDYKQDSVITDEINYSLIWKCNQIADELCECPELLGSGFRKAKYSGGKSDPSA
T1 sequence (O09172 1-274 partner): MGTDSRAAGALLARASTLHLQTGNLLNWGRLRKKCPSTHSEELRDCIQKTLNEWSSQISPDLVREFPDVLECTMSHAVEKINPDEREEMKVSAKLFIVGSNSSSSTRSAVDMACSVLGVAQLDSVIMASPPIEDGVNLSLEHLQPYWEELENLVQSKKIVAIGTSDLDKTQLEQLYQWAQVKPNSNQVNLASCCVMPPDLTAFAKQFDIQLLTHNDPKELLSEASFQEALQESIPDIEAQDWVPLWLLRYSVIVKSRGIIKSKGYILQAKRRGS
From the text: The biosynthesis mechanism of γ-Glu-X peptides was elucidated using a mouse. As shown in FIG. 1(B), the following biosynthesis mechanism of γ-Glu-X peptides was found. That is, the oxidative stress condition caused by active oxygen and electrophiles causes depletion of glutathione, which is used for removing these substances, and this depletion leads to activation of γ-glutamyl cysteine synthase (GCS). Then, γ-Glu-X dipeptides and γ-Glu-X-Gly tripeptides are biosynthesized by using various amino acids as substrates (starting materials). The experimental procedures are described below.
Male mice were fasted overnight and anesthetized by an intraperitoneal injection of pentobarbital sodium (60 mg/Kg of body weight). Then, the mice were intraperitoneally injected with BSO, which is a γ-glutamyl cysteine synthase (GCS) inhibitor, and diethylmaleate (DEM), which is an electrophile (GCS activator), both at a dose of 4 mmol/kg of body weight (888 mg of BSO, 688 mg of DEM). The mouse as a healthy subject was intraperitoneally injected with physiological saline. Liver specimens (about 300 mg) were excised from the mice 1 hour after administration (5 times each).
The liver specimens (about 300 mg) excised from the mice were immediately placed in 1 ml of methanol containing an internal standard substance and were homogenized to inactivate an enzyme, thereby stopping enhancement of metabolism. After 500 μl of pure water was added to the mixture, 300 μl of solution was taken out. To this solution, 200 μl of chloroform was added. After thorough stirring, the solution was further centrifuged at 15000 rpm for 15 minutes at 4° C. After allowing to stand, 300 μl of separated water-methanol phase was passed through a 5 kDa molecular weight cutoff filter for centrifugal ultrafiltration to deproteinize it. The filtrate was lyophilized and 50 μl of Milli-Q water was added thereto. The mixture was subjected to a CE-TOFMS measurement.
The method described below was used to confirm that the detected γ-Glu-X peptides and γ-Glu-X-Gly peptides were synthesized in a glutathione-biosynthesis pathway. […]

amount of glutathione in the livers ([1]; liver 1 hour after administration, compared to the healthy (saline) mouse)	γ-Glu-X and γ-Glu-X-Gly peptidic substances in the liver other than γ-Glu-Cys, GSH and γ-Glu-Ser-Gly ([1]; liver 1 hour after administration, compared to the healthy subject)	γ-Glu-2AB and ophthalmic acid (γ-Glu-2AB-Gly) in the murine serum ([1]; serum, compared to the normal state)	SMILES	ophthalmic acid level (glutathione; in inverse proportion to the glutathione level)	glutathione level (glutathione)
			CC(=O)Nc1ccc(O)cc1 [APAP, Acetaminophen]	increased rapidly	decreased
decreased rapidly	decreased	decreased	CCCCS(=N)(=O)CCC(N)C(=O)O (centres unmarked) [BSO]		
